Experimental data as given in the kinase profiling compilation of Christmann-Franck et al. (2016).
One block for each compound: values may come before it.

Columns and labels:
Assay in all cases: radiometric filter-binding kinase assay
[1] = molecular target: IGF1R (human) (UniProt P08069)
[2] = molecular target: CAMKK2 (human) (UniProt Q96RR4)
[3] = molecular target: SRC (human) (UniProt P12931)
[4] = test system: ROCK2 (rat); conditions: accession and sequence are those of the human protein
[5] = molecular target: PRKCZ (human) (UniProt Q05513)
[6] = molecular target: EPHB3 (human) (UniProt P54753)
[7] = molecular target: HIPK1 (human) (UniProt Q86Z02)
[8] = molecular target: SYK (human) (UniProt P43405)
[9] = molecular target: PLK1 (human) (UniProt P53350)
[10] = molecular target: MARK4 (human) (UniProt Q96L34)
[11] = molecular target: EPHA4 (human) (UniProt P54764)
[12] = molecular target: HIPK3 (human) (UniProt Q9H422)
[13] = molecular target: MAP3K1 (human) (UniProt Q13233)
[14] = molecular target: MAP3K9 (human) (UniProt P80192)
[15] = molecular target: CLK2 (human) (UniProt P49760)
[16] = molecular target: MAPK1 (human) (UniProt P28482)
[17] = molecular target: YES1 (human) (UniProt P07947)
[18] = molecular target: MAPK13 (human) (UniProt O15264)
[19] = test system: AKT2 (human), P31751 [S474D]
[20] = molecular target: INSR (human) (UniProt P06213)
[21] = molecular target: PKN2 (human) (UniProt Q16513)
[22] = molecular target: GSK3B (human) (UniProt P49841)
[23] = test system: LCK (mouse); conditions: accession and sequence are those of the human protein
[24] = molecular target: DAPK1 (human) (UniProt P53355)
[25] = molecular target: RPS6KA5 KD1 KD2 (human) (UniProt O75582)
[26] = molecular target: EPHB4 (human) (UniProt P54760)
[27] = molecular target: BRSK2 (human) (UniProt Q8IWQ3)
[28] = test system: PRKAA1 or PRKAA2 (rat); conditions: accession and sequence are those of the human protein
[29] = molecular target: MAPK11 (human) (UniProt Q15759)
[30] = molecular target: MAP3K5 (human) (UniProt Q99683)
[31] = molecular target: HIPK2 (human) (UniProt Q9H2X6)
[32] = molecular target: CSK (human) (UniProt P41240)
[33] = molecular target: PAK6 (human) (UniProt Q9NQU5)
[34] = molecular target: PAK7 (human) (UniProt Q9P286)
[35] = molecular target: MAP3K7 TAB1 (human) (UniProt Q15750+O43318)
[36] = molecular target: EPHB1 (human) (UniProt P54762)

Chain of MAP3K5 (human) (Q99683 whole entry, looked up): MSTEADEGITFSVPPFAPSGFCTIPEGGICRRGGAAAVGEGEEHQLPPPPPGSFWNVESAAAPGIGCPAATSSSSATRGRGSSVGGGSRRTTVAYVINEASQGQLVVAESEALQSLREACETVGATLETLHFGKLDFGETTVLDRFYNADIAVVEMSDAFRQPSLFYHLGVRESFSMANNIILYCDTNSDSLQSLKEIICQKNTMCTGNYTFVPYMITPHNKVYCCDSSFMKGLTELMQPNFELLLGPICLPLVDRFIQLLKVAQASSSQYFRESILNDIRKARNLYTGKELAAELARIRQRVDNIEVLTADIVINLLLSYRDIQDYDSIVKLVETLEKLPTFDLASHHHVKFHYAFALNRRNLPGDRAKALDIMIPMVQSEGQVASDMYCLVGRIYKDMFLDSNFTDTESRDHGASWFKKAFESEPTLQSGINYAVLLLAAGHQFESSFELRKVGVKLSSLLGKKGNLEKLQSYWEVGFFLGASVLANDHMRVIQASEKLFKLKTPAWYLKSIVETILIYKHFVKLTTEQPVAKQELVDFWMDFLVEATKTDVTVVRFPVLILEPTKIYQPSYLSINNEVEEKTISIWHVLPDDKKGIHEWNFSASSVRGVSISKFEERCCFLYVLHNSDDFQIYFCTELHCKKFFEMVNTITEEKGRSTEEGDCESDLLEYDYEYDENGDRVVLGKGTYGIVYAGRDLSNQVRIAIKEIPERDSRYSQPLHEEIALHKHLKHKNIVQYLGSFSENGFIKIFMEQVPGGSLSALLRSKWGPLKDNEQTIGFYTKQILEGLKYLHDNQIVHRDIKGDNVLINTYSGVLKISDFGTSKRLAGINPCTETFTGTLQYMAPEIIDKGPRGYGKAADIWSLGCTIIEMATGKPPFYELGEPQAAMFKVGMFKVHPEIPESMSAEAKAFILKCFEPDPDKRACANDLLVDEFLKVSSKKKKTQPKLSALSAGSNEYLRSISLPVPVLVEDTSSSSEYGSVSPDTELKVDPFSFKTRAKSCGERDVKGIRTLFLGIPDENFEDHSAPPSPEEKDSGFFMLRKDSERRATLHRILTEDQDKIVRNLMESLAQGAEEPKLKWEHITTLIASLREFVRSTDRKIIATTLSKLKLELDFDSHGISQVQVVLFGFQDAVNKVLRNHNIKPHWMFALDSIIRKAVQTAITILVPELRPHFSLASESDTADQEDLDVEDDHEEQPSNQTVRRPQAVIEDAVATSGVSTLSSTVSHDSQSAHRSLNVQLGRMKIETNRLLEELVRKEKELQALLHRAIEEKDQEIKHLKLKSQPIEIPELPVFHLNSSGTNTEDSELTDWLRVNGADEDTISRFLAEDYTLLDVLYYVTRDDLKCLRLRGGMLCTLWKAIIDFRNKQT
Chain of PRKCZ (human) (Q05513 whole entry, looked up): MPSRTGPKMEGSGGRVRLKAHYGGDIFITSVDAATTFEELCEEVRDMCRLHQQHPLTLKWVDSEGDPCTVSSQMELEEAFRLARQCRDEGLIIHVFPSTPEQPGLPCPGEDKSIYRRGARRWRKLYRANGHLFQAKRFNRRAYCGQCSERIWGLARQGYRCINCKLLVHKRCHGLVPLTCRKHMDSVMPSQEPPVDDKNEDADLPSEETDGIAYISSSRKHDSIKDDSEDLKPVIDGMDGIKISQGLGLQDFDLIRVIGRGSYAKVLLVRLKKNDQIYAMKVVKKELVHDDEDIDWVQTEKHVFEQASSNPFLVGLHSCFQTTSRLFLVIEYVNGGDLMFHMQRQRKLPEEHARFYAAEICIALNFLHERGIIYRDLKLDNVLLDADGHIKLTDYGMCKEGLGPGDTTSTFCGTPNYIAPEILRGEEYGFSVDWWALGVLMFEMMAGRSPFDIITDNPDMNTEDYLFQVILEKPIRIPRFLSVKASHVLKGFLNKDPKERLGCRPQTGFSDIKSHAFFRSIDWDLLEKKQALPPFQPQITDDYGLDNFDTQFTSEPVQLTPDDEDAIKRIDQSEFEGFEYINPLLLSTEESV
Chain of HIPK1 (human) (Q86Z02 whole entry, looked up): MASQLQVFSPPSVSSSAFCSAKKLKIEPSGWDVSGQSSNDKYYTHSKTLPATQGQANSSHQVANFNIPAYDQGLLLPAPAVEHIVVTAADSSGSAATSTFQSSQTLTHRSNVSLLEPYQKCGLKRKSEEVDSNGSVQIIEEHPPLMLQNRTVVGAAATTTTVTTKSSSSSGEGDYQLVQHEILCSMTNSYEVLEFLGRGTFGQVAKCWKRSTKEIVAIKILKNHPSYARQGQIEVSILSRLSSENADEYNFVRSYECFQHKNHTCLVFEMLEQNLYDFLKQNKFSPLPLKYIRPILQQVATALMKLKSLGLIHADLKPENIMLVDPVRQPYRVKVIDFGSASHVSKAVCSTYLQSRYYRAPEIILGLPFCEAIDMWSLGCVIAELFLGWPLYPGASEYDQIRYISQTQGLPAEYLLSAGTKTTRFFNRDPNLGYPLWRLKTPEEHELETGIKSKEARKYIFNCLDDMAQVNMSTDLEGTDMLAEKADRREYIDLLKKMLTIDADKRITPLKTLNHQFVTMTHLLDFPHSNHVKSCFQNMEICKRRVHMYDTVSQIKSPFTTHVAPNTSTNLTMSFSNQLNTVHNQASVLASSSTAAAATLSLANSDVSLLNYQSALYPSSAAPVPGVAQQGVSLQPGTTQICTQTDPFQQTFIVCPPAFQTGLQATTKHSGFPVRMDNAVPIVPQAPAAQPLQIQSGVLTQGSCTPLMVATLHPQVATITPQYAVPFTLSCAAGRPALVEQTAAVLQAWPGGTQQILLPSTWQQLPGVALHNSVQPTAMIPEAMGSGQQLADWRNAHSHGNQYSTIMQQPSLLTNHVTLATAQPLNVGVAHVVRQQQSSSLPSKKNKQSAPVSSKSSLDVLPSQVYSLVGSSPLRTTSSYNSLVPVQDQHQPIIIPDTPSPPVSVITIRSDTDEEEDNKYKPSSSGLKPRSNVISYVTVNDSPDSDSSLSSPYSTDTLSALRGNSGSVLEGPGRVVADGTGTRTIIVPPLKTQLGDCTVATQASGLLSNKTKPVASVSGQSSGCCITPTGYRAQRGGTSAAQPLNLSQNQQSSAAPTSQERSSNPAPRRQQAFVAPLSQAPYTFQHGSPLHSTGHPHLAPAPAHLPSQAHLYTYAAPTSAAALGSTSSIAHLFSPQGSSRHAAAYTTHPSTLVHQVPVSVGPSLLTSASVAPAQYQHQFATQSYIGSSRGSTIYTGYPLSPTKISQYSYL
Chain of SRC (human) (P12931 whole entry, looked up): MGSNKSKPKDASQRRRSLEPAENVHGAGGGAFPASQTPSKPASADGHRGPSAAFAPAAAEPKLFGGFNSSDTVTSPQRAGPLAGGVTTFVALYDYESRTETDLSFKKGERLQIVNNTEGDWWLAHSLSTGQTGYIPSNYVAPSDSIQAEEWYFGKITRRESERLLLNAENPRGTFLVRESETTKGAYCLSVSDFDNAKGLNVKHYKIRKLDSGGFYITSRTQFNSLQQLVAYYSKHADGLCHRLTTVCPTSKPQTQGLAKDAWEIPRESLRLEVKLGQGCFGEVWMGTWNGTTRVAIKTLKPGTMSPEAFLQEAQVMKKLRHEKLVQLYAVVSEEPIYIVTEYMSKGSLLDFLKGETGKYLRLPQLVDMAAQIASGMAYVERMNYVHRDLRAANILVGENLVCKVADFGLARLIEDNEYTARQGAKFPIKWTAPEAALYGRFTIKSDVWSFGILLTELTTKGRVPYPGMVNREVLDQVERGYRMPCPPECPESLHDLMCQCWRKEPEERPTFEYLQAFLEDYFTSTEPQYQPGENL
Chain of INSR (human) (P06213 whole entry, looked up): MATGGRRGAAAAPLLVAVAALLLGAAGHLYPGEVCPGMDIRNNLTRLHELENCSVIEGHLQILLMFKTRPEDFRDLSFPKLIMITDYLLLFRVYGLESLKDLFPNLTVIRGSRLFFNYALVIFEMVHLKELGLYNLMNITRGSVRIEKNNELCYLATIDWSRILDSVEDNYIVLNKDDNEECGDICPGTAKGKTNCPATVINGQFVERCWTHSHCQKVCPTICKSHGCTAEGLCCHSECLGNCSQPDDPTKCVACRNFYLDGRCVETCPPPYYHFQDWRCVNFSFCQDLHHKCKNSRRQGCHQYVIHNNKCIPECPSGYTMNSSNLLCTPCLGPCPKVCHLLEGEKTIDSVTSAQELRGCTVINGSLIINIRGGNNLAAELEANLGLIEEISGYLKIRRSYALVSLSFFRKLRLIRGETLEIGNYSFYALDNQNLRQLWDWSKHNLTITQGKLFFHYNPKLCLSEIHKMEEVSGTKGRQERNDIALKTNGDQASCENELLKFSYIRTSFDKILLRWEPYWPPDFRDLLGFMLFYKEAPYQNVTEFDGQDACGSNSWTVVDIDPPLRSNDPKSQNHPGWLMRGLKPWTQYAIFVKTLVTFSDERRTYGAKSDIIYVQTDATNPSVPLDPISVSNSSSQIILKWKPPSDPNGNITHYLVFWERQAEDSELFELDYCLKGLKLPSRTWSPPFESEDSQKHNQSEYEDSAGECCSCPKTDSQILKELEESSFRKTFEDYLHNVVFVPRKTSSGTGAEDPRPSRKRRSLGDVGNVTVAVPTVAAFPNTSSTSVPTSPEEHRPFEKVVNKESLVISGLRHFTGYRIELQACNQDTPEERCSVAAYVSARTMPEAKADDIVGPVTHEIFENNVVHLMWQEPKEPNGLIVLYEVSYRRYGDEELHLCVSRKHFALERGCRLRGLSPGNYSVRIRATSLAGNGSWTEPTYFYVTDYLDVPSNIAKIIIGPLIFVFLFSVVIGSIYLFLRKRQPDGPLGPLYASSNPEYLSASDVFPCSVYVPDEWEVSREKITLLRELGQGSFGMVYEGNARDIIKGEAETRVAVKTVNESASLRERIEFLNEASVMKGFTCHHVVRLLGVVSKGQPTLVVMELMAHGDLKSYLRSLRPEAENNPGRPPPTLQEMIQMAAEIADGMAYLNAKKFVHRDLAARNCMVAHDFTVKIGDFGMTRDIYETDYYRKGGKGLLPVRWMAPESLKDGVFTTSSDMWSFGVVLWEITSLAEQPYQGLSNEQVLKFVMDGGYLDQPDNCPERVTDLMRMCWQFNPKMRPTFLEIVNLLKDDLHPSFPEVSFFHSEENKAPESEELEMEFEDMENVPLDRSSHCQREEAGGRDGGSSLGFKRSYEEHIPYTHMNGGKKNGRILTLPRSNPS

- residual activity ([1]; compound 0.1 µM): 105%
- residual activity ([1]; compound 1.0 µM): 123%
- residual activity ([1]; compound 10.0 µM): 113%
- residual activity ([2]; compound 0.1 µM): 115%
- residual activity ([2]; compound 1.0 µM): 115%
- residual activity ([2]; compound 10.0 µM): 99%
- residual activity ([3]; compound 0.1 µM): 114%
- residual activity ([3]; compound 1.0 µM): 113%
- residual activity ([4]; compound 0.1 µM): 103%
- residual activity ([4]; compound 1.0 µM): 107%
- residual activity ([4]; compound 10.0 µM): 112%
- residual activity ([5]; compound 0.1 µM): 103%
- residual activity ([5]; compound 1.0 µM): 110%
- residual activity ([5]; compound 10.0 µM): 101%
- residual activity ([6]; compound 0.1 µM): 114%
- residual activity ([6]; compound 1.0 µM): 104%
- residual activity ([6]; compound 10.0 µM): 97%
- residual activity ([7]; compound 0.1 µM): 110%
- residual activity ([7]; compound 1.0 µM): 112%
- residual activity ([7]; compound 10.0 µM): 101%
- residual activity ([8]; compound 1.0 µM): 115%
- residual activity ([8]; compound 10.0 µM): 130%
- residual activity ([9]; compound 0.1 µM): 105%
- residual activity ([9]; compound 1.0 µM): 101%
- residual activity ([9]; compound 10.0 µM): 118%
- residual activity ([10]; compound 0.1 µM): 87%
- residual activity ([10]; compound 1.0 µM): 97%
- residual activity ([10]; compound 10.0 µM): 77%
- residual activity ([11]; compound 0.1 µM): 107%
- residual activity ([11]; compound 1.0 µM): 98%
- residual activity ([11]; compound 10.0 µM): 109%
- residual activity ([12]; compound 0.1 µM): 96%
- residual activity ([12]; compound 1.0 µM): 94%
- residual activity ([12]; compound 10.0 µM): 58%
- residual activity ([13]; compound 0.1 µM): 112%
- residual activity ([13]; compound 1.0 µM): 115%
- residual activity ([13]; compound 10.0 µM): 95%
- residual activity ([14]; compound 0.1 µM): 91%
- residual activity ([14]; compound 1.0 µM): 100%
- residual activity ([14]; compound 10.0 µM): 86%
- residual activity ([15]; compound 0.1 µM): 88%
- residual activity ([15]; compound 1.0 µM): 102%
- residual activity ([15]; compound 10.0 µM): 94%
- residual activity ([16]; compound 10.0 µM): 111%
- residual activity ([17]; compound 0.1 µM): 99%
- residual activity ([17]; compound 1.0 µM): 112%
- residual activity ([18]; compound 0.1 µM): 106%
- residual activity ([18]; compound 1.0 µM): 110%
- residual activity ([18]; compound 10.0 µM): 92%
- residual activity ([19]; compound 0.1 µM): 92%
- residual activity ([19]; compound 1.0 µM): 72%
- residual activity ([19]; compound 10.0 µM): 10%
- residual activity ([20]; compound 1.0 µM): 117%
- residual activity ([21]; compound 0.1 µM): 103%
- residual activity ([21]; compound 1.0 µM): 95%
- residual activity ([21]; compound 10.0 µM): 104%
- residual activity ([22]; compound 0.1 µM): 114%
- residual activity ([22]; compound 1.0 µM): 124%
- residual activity ([22]; compound 10.0 µM): 127%
- residual activity ([23]; compound 1.0 µM): 111%
- residual activity ([23]; compound 10.0 µM): 129%
- residual activity ([24]; compound 0.1 µM): 108%
- residual activity ([24]; compound 1.0 µM): 95%
- residual activity ([24]; compound 10.0 µM): 108%
- residual activity ([25]; compound 0.1 µM): 104%
- residual activity ([25]; compound 1.0 µM): 101%
- residual activity ([25]; compound 10.0 µM): 99%
- residual activity ([26]; compound 0.1 µM): 120%
- residual activity ([26]; compound 1.0 µM): 119%
- residual activity ([26]; compound 10.0 µM): 105%
- residual activity ([27]; compound 0.1 µM): 99%
- residual activity ([27]; compound 1.0 µM): 103%
- residual activity ([27]; compound 10.0 µM): 77%
- residual activity ([28]; compound 0.1 µM): 99%
- residual activity ([28]; compound 1.0 µM): 100%
- residual activity ([28]; compound 10.0 µM): 90%
- residual activity ([29]; compound 0.1 µM): 121%
- residual activity ([29]; compound 10.0 µM): 128%
- residual activity ([30]; compound 0.1 µM): 104%
- residual activity ([30]; compound 1.0 µM): 100%
- residual activity ([31]; compound 0.1 µM): 108%
- residual activity ([31]; compound 1.0 µM): 113%
- residual activity ([31]; compound 10.0 µM): 60%
- residual activity ([32]; compound 0.1 µM): 112%
- residual activity ([32]; compound 1.0 µM): 109%
- residual activity ([32]; compound 10.0 µM): 111%
- residual activity ([33]; compound 0.1 µM): 125%
- residual activity ([33]; compound 1.0 µM): 126%
- residual activity ([33]; compound 10.0 µM): 105%
- residual activity ([34]; compound 0.1 µM): 102%
- residual activity ([34]; compound 1.0 µM): 116%
- residual activity ([34]; compound 10.0 µM): 111%
- residual activity ([35]; compound 0.1 µM): 114%
- residual activity ([35]; compound 1.0 µM): 104%
- residual activity ([35]; compound 10.0 µM): 109%
- residual activity ([36]; compound 0.1 µM): 105%
- residual activity ([36]; compound 1.0 µM): 101%
- residual activity ([36]; compound 10.0 µM): 107%
SMILES: CC1=C(CO)C(=O)O[C@@H]([C@@H](C)[C@H]2CC[C@H]3[C@@H]4C[C@H]5O[C@]56[C@@H](O)C=CC(=O)[C@]6(C)C4CC[C@]23C)C1 (stereo partly specified)

- residual activity ([1]; compound 10.0 µM): 105%
- residual activity ([2]; compound 10.0 µM): 115%
- residual activity ([3]; compound 1.0 µM): 103%
- residual activity ([3]; compound 10.0 µM): 135%
- residual activity ([4]; compound 1.0 µM): 88%
- residual activity ([4]; compound 10.0 µM): 87%
- residual activity ([5]; compound 1.0 µM): 94%
- residual activity ([5]; compound 10.0 µM): 61%
- residual activity ([6]; compound 1.0 µM): 72%
- residual activity ([6]; compound 10.0 µM): 82%
- residual activity ([7]; compound 1.0 µM): 104%
- residual activity ([7]; compound 10.0 µM): 90%
- residual activity ([8]; compound 10.0 µM): 85%
- residual activity ([9]; compound 1.0 µM): 95%
- residual activity ([9]; compound 10.0 µM): 111%
- residual activity ([10]; compound 1.0 µM): 88%
- residual activity ([10]; compound 10.0 µM): 102%
- residual activity ([11]; compound 1.0 µM): 80%
- residual activity ([11]; compound 10.0 µM): 91%
- residual activity ([12]; compound 1.0 µM): 94%
- residual activity ([12]; compound 10.0 µM): 64%
- residual activity ([13]; compound 1.0 µM): 93%
- residual activity ([13]; compound 10.0 µM): 103%
- residual activity ([14]; compound 1.0 µM): 99%
- residual activity ([14]; compound 10.0 µM): 80%
- residual activity ([15]; compound 1.0 µM): 93%
- residual activity ([15]; compound 10.0 µM): 64%
- residual activity ([16]; compound 1.0 µM): 101%
- residual activity ([16]; compound 10.0 µM): 88%
- residual activity ([17]; compound 1.0 µM): 85%
- residual activity ([17]; compound 10.0 µM): 80%
- residual activity ([18]; compound 1.0 µM): 96%
- residual activity ([18]; compound 10.0 µM): 70%
- residual activity ([19]; compound 1.0 µM): 87%
- residual activity ([19]; compound 10.0 µM): 54%
- residual activity ([20]; compound 1.0 µM): 98%
- residual activity ([20]; compound 10.0 µM): 94%
- residual activity ([21]; compound 1.0 µM): 85%
- residual activity ([21]; compound 10.0 µM): 63%
- residual activity ([22]; compound 1.0 µM): 110%
- residual activity ([22]; compound 10.0 µM): 119%
- residual activity ([23]; compound 1.0 µM): 84%
- residual activity ([23]; compound 10.0 µM): 247%
- residual activity ([24]; compound 1.0 µM): 95%
- residual activity ([24]; compound 10.0 µM): 43%
- residual activity ([25]; compound 1.0 µM): 110%
- residual activity ([25]; compound 10.0 µM): 46%
- residual activity ([26]; compound 1.0 µM): 116%
- residual activity ([27]; compound 1.0 µM): 76%
- residual activity ([27]; compound 10.0 µM): 64%
- residual activity ([28]; compound 1.0 µM): 99%
- residual activity ([28]; compound 10.0 µM): 105%
- residual activity ([29]; compound 1.0 µM): 92%
- residual activity ([29]; compound 10.0 µM): 95%
- residual activity ([30]; compound 1.0 µM): 86%
- residual activity ([30]; compound 10.0 µM): 83%
- residual activity ([31]; compound 1.0 µM): 88%
- residual activity ([31]; compound 10.0 µM): 69%
- residual activity ([32]; compound 1.0 µM): 97%
- residual activity ([32]; compound 10.0 µM): 85%
- residual activity ([33]; compound 1.0 µM): 88%
- residual activity ([33]; compound 10.0 µM): 28%
- residual activity ([34]; compound 1.0 µM): 87%
- residual activity ([34]; compound 10.0 µM): 107%
- residual activity ([35]; compound 1.0 µM): 74%
- residual activity ([35]; compound 10.0 µM): 36%
- residual activity ([36]; compound 1.0 µM): 72%
- residual activity ([36]; compound 10.0 µM): 67%
SMILES: NCC(=O)Nc1ccc(-n2nc(C(F)(F)F)cc2-c2ccc3c(ccc4ccccc43)c2)cc1
